From patent publication US10882826B2, “Quinolinone or quinazolinone comprising antibiofilm compositions, compounds and methods and uses relating thereto” (University College Cork—National University of Ireland, priority 2015, dated 2021)

Columns and labels:
[1] = test system: P. aeruginosa PAO1 pqsA-pqsA-lacZ strain; assay: Phenazine extraction (phenazine production); assay type: cell-based; conditions: PAO1 pqsA-pqsA-lacZ strain, test compounds 10 μM, 24 hr; methanol control 0.080
Description: (§1) P. aeruginosa strains, PAO1 and pqsA mutant, containing the chromosomally inserted pqsA-lacZ promoter fusion on plasmid pUC18-mini-Tn7, were sub-cultured from glycerol stocks onto LB agar plates, supplemented with Carbenicillin (200 μg/ml) and X-gal (40 μg/ml), and incubated at 37° C. overnight. Single colonies were inoculated into LB broth (20 ml), supplemented with Carbenicillin (200 μg/ml), and incubated at 37° C., shaking at 180 rpm overnight. For subsequent experiments, the OD600 nm was recorded and a starting OD600 nm of 0.02 was inoculated into fresh LB broth, supplemented with Carbenicillin (200 μg/ml) and incubated at 37° C., shaking at 180 rpm.
P. aeruginosa strains were cultured as described above for 24 hr, with the addition of test compounds (10 μM). Cultures were centrifuged at 4000 rpm for 10 minutes and the cell free supernatant (5 ml) removed. Chloroform (3 ml) was added, and mixed by vortex. After centrifugation at 4000 rpm for 5 mins, the lower aqueous phase was transferred to 0.2 M HCl (2 ml). Samples were mixed by vortex and centrifuged at 4000 rpm for 5 mins to separate the phases. An aliquot of the top phase (1 ml) was removed and spectrophotmetrically analysed at OD570 nm. Phenazine production was calculated using the following formula: OD570 nm×2×17.072 and the units expressed in μg/ml.
(§2) The phenazine production levels and Miller units in the PAO1 pqsA-pqsA-lacZ strain are detailed in table 5.
(§3) The virulence of compounds B2, C13 and C15 towards P. aeruginosa was assessed using an analogous method.

[2] = test system: pqsA-lacZ promoter fusion; assay: Promoter fusion based expression analysis (pqsA-lacZ, Miller units); assay type: cell-based, P. aeruginosa; conditions: PAO1 pqsA-pqsA-lacZ strain, 100 μM, overnight; methanol control 12287
Description: as §1
Promoter fusion analyses were performed in a 96-well format. Briefly, overnight cultures of wild-type PAO1 pqsA-lacZ (pLP0996) and mutant strain PAO1 pqsA^− pqsA-LacZ were diluted to OD600 nm=0.02 in LB. Test compounds at 100 μM final concentration were added, mixed, aliquoted into 96 well plates and incubated overnight at 37° C. with shaking. The next day, OD600 nm values were recorded in a plate reader. Aliquots of cells (0.02 ml) were permeabilised [100 mM dibasic sodium phosphate (Na2HPO4), 20 mM KCl, 2 mM MgSO4, 0.8 mg/mL CTAB (hexadecyltrimethylammonium bromide), 0.4 mg/mL sodium deoxycholate, 5.4 μL/mL beta-mercaptoethanol] and added to substrate solution [60 mM Na2HPO4, 40 mM NaH2PO4, 1 mg/mL o-nitrophenyl-β-D-Galactoside (ONPG), 2.7 μL/mL β-mercaptoethanol]. The kinetics of colour development was monitored and the reactions were stopped using 1M NaCO3. OD420 nm were recorded as above. Miller units were calculated using the following equation; 1000×[OD420 nm/(OD600 nm)×0.02 ml×reaction time (mins)].
as §2, §3

[3] = test system: A. fumigatus Af293 biofilm; assay: A. fumigatus biofilm assay (crystal violet); assay type: cell-based, Aspergillus fumigatus; conditions: for effectiveness against fungal biofilms formed by Aspergillus fumigatus (in words): summary statement
Description: A. fumigatus Af293 was routinely grown on Sabouraud dextrose agar (SDA) in 100 ml cell culture flasks at 37° C. for 3-4 days until a lawn of fungal growth was observed.
(§4) A. fumigatus Af293 was grown on SDA in 100 ml cell culture flasks at 37° C. for 3-4 days. Conidia were harvested by flooding the surface of the agar plates with 5 ml PBS (Oxoid) containing 0.025% (v/v) Tween 20 and gently moving the liquid over the surface of the fungal lawn. The conidial suspension was transferred into a 25 ml sterile container and conidia were counted using a Neubauer haemocytometer and light microscope. Conidia were adjusted to the required concentration in RPMI 1640 (Sigma) buffered to pH 7.0 with 0.165 M MOPS immediately prior to biofilm formation analysis.
(§5) To assess biofilm formation, counted A. fumigatus spores (1×10^5) in MOPS buffered RPMI 1640 were inoculated into 24- and 96-well plates and grown overnight in the presence of 100 μM HHQ, PQS and the test compounds. After 24 hrs, the media was removed and the biofilm washed twice with distilled water after which 0.1% crystal violet (CV) was added to each well and allowed to stand for 1 hr at room temperature. The crystal violet was removed and all wells washed in a water bath by inversion. Ethanol was added to each well to solubilise biofilms after which samples were read on a spectrophotometer at Abs595 nm.

[4] = test system: A. fumigatus CFBRC1 biofilm; assay: A. fumigatus biofilm assay, clinical source CFBRC1; assay type: cell-based, Aspergillus fumigatus; conditions: biofilm from clinical source CFBRC1
Description: as §4, §5
(§6) The above experiments were carried out using biofilms grown from laboratory sources of A. fumigatus. The experiments were repeated to test some compounds against biofilms grown from three different clinical sources of A. fumigatus (CFBRC1, CFBRC2 and CFBRC3. The results are shown in table 8: […]

[5] = test system: A. fumigatus CFBRC2 biofilm; assay: A. fumigatus biofilm assay, clinical source CFBRC2; assay type: cell-based, Aspergillus fumigatus; conditions: biofilm from clinical source CFBRC2
Description: as §4, §5, §6

[6] = test system: A. fumigatus CFBRC3 biofilm; assay: A. fumigatus biofilm assay, clinical source CFBRC3; assay type: cell-based, Aspergillus fumigatus; conditions: biofilm from clinical source CFBRC3
Description: as §4, §5, §6

DU145 = assay: LDH release cytotoxicity, DU145; assay type: cell-based; conditions: DU145 cell line; percentage of 0.1% Triton
Description: Lactate dehydrogenase (LDH) release from IB3 lung epithelial cells was assayed as a measure of cytotoxicity using an LDH colorimetric kit (Roche) according to manufacturers' instructions. Briefly, IB3-1 cells were seeded onto 96 well plates and treated with methanol (control) and test compounds (100 μM). Following 16 hr incubation at 37° C. and 5% CO2, supernatants were removed and added to catalyst reaction mixture in a fresh plate and further incubated at 37° C. and 5% CO2 for 30 mins to allow for colour development. After this period, the plate was analysed on an ELISA plate reader at OD490 nm. Cytotoxicity was expressed as a percentage of cells treated with 0.1% (v/v) Triton (100% cytotoxicity). The results are detailed in table 3:
The above experiments were repeated, testing some compounds against further cell lines (A549, DU145 and HeLa).

| Structure (SMILES) | Phenazine, Mean [1] | Miller Units, Mean [2] | Relative absorbance at 595 nm compared to methanol control, Mean ([3]; A. fumigatus Af293 biofilm, 100 μM, 24 hrs, crystal violet) | effectiveness against fungal biofilms formed by Aspergillus fumigatus (in words) [3] | Relative absorbance compared to MeOH (=1), Mean [4] | Relative absorbance compared to MeOH (=1), Mean [5] | Relative absorbance compared to MeOH (=1), Mean [6] | Cytotoxicity, Mean (LDH release) (DU145) |
| --- | --- | --- | --- | --- | --- | --- | --- | --- |
| CCCCCCCc1nc2ccccc2c(=O)n1N [Compound C2] | 0.541 µg/mL | 16027 Miller Units | 0.37 | effective | 0.310 | 0.304 | 0.292 |  |
| CCCCCCCc1cc(=O)c2cc(Cl)ccc2[nH]1 [Compound C4] | 0 µg/mL | 35489 Miller Units |  | effective |  |  |  | 24.42% |
| CCCCCCCc1cc(=O)c2cccc(Cl)c2[nH]1 [Compound C5] | 0 µg/mL | 11940 Miller Units |  |  | 0.297 | 0.359 | 0.483 |  |
